Data from publication PMC8961568 (Biomolecules, 2022).

Target: T1, HQDS.b. (Streptomyces bingchenggensis, UniProt D7BW96)
T1 construct: gene SBI_08688; His8-TEV tagged (pET28b), E. coli BL21(DE3), Ni-NTA purified
T1 sequence (D7BW96 1-278): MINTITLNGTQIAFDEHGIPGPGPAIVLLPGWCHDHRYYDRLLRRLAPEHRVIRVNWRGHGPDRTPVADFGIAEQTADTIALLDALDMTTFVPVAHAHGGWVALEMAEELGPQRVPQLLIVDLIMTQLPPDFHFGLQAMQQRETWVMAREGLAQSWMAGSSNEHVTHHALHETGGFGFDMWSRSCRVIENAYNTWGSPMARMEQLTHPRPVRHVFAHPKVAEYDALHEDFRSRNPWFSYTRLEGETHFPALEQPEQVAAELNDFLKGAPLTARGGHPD
Assay: spectrophotometric PQS consumption at […] nm
Format: biochemical
Conditions: 50 mM Tris, 2 mM EDTA, 10% PEG 1500, pH 8.0, 30 °C

In the case of CCCCCCCc1[nH]c2ccccc2c(=O)c1O [PQS, 2-heptyl-3-hydroxy-4(1H)-quinolone], the KM is reported as “HQDS.b., which exhibits the lowest KM towards PQS among the enzymes tested (Table S1)”.
